These are literature values, as cited in PMC5732038 (ACS chemical biology, 2017).

The series deals with methicillin resistant Staphylococcus aureus (MRSA). As to conditions: several Gram-positive bacteria including MRSA.

Consider Sublancin, for which the antimicrobial activity entry is reported as “antimicrobial activity”.
